pIC50: −log10 of the molar value. Structures can show the parent of a compound that is named as a salt.

The target in this assay is T1, DMT1 (Homo sapiens, UniProt P49281).
T1 sequence (P49281 1-568): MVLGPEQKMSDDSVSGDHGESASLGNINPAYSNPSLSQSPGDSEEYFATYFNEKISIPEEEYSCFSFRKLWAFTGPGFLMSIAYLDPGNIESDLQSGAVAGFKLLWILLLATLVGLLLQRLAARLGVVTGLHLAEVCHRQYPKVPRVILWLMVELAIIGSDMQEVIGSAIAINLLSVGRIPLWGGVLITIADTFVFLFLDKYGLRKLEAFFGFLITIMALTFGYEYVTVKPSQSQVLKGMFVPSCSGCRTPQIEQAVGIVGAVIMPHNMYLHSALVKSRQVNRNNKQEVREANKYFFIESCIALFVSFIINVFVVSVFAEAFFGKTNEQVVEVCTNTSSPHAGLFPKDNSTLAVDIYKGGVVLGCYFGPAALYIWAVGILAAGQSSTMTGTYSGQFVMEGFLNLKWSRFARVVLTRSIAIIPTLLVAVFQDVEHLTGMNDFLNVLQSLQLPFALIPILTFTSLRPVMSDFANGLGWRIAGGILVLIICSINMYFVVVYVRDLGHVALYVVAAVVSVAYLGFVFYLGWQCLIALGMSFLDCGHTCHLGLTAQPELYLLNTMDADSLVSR
Nature of the assay: DMT1 Activity Assay (In Vitro Assay). The format is cell-based. Particulars: read-out: IC50 Activity Level. From the text: In particular, identification of the compounds of the invention ability to modulate, preferably to inhibit, DMT1 activity, can be assessed using a variety of in vitro and in vivo assays, for measuring uptake of reduced iron (Fe^2+). One such protocol involves the screening of chemical agents for ability to modulate the activity of DMT1 thereby identifying it as a modulating agent. The in vitro activity of DMT1 can be measured in cell based assays by either directly measuring iron flux (using a radioactively labelled iron ^55Fe) or by measuring the fluorescence of a cell permeable iron fluorophore such as calcein. Stable cell lines overexpressing DMT1 are exposed to ^55Fe or loaded with calcein and then compound is applied. […] Alternatively, in another format electrophysiological techniques can be used to measure the current or iron or other metals traversing the cell membrane with DMT1 in a Xenopus oocyte or other cell based system (Gunshin et al., Nature, 1997, 31; 388(6641):482-8).
This example discloses various in vitro assay for testing and profiling test agents against DMT1 stably expressed in cells of either an endogenous or recombinant origin. These assays can use stable cell lines overexpressing DMT1 or intestinal cells and intestinal tissue expressing endogenous DMT1. DMT1 function could also be assessed in other cell types that express DMT1. Of greatest relevance would be the erythrocytes (e.g. K562 cells) or hepatocytes (e.g. […]).
DMT1 function can be assessed in a number of ways, including monitoring fluorescence changes of an iron fluorophore (e.g. calcein), monitoring uptake of radiolabelled iron (55Fe or ^59Fe) (Picard et al., J. Biol. Chem., 2000, 275(46):35738-45 and Wetli et al., Chem. Biol. 2006 September; 13(9):965-72), or by assessing the current or transport of iron and other metals into the cells or tissues using standard electrophysiological techniques (Gunshin et al., Nature, 1997, 388(6641):482-8.).
Variations of these assays involve alterations of incubation times, the iron status of the cells and tissues (which may be modulated by chemical chelators or by harvesting from iron deficient animals), the metal cation detected and the pH of the reaction can generally be made by conventional techniques known to those skilled in the art.
As for `CN(C)S(=O)(=O)c1ccc(Sc2ccc(F)cc2CSC(=N)N)c(CSC(=N)N)c1` [Example 2.2, 2-({2-({[amino(imino)methyl]thio}methyl)-4-[(dimethylamino)sulfonyl]phenyl}thio)-5-fluorobenzyl imidothiocarbamate dihydrobromide], the pIC50 was 6.00 to 7.00. The same measure for `N=C(N)SCc1cc(F)ccc1Oc1cc(F)ccc1CSC(=N)N` [Example 2.12, 2-[2-(2-carbamimidoylsulfanylmethyl-5-fluorophenoxy)-5-fluorobenzyl]isothiourea dihydrobromide]: 6.00 to 7.00; for `N=C(N)SCc1ccccc1Sc1cc(F)ccc1CSC(=N)N` [Example 1.12, 2-[2-(2-carbamimidoylsulfanylmethyl-5-fluorophenylsulfanyl)benzyl]-isothiourea dihydrobromide]: 6.00 to 7.00. The same measure for `N=C(N)SCc1ccccc1C(=O)c1cc(Cl)ccc1CSC(=N)N` [Example 2.28, 2-(6-(amidinothiomethyl)phenyl)carbonyl-1-(amidinothiomethyl)-4-chlorobenzene dihydrobromide dihydrobromide]: at most 6.00; for `N=C(N)SCc1cc([N+](=O)[O-])ccc1Oc1cc(Cl)ccc1CSC(=N)N` [Example 2.19, 2-[2-({[amino(imino)methyl]thio}methyl)-5-chlorophenoxy]-5-nitrobenzyl imidothiocarbamate dihydrobromide]: at most 6.00; for `N=C(N)SCCc1cc(Cl)ccc1Sc1ccc(F)cc1CSC(=N)N` [Example 1.24, 2-[2-(2-carbamimidoylsulfanylethyl-4-chlorophenylsulfanyl)-5-fluorobenzyl]isothiourea dihydrobromide]: 6.00 to 7.00. Consider `N=C(N)SCc1ccccc1Sc1ccc(N)cc1CSC(=N)N` [Example 1.19, 2-[2-(2-carbamimidoylsulfanylmethylphenylsulfanyl)-5-aminobenzyl]-isothiourea trihydrobromide], for which the pIC50 is 6.00 to 7.00. The same measure for `N=C(N)SCc1ccc(Cl)cc1Oc1cc([N+](=O)[O-])ccc1CSC(=N)N` [Example 2.9, 2-[2-({[amino(imino)methyl]thio}methyl)-5-chlorophenoxy]-4-nitrobenzyl imidothiocarbamate dihydrobromide]: at most 6.00; for `N=C(N)SCc1cc(F)ccc1Sc1sccc1CSC(=N)N` [Example 2.6, (2-{[2-({[amino(imino)methyl]thio}methyl)-4-fluorophenyl]thio}-3-thienyl)methyl imidothiocarbamate dihydrochloride]: at most 6.00. The same measure for `N=C(N)SCc1cc(F)ccc1Sc1ccc(C(F)(F)F)cc1CSC(=N)N` [Example 1.18, 2-[2-(2-carbamimidoylsulfanylmethyl-4-fluorophenylsulfanyl)-5-(trifluoromethyl)benzyl]isothiourea dihydrobromide]: at most 6.00; for `CN(c1ccccc1CSC(=N)N)c1ccccc1CSC(=N)N` [Example 1.28, 2,2′-(methylazanediyl)bis(2,1-phenylene)bis-(methylene)dicarbamimidothioate trihydrobromide]: 6.00 to 7.00; for `N=C(N)SCc1ccccc1C(=O)c1ccc(Cl)cc1CSC(=N)N` [Example 2.29, 2-(6-(amidinothiomethyl)phenyl)carbonyl-1-(amidinothiomethyl)-5-chlorobenzene dihydrobromide]: at most 6.00. For `N=C(N)SCc1ccccc1Sc1ccc(F)cc1CSC(=N)N` [Example 1.2, 2-[2-(2-carbamimidoylsulfanylmethyl-4-fluorophenylsulfanyl)benzyl]-isothiourea dihydrobromide] the value was 6.00 to 7.00.

As for `N=C(N)SCc1ccccc1Oc1ccc(F)cc1CSC(=N)N` [Example 2.21, 2-[2-({[amino(imino)methyl]thio}methyl)-4-fluorophenoxy]benzyl imidothiocarbamate dihydrobromide], the pIC50 is 6.00 to 7.00. For `CCNc1ccc(Sc2ccccc2CSC(=N)N)c(CSC(=N)N)c1` [Example 1.21, 2-[2-(2-carbamimidoylsulfanylmethylphenylsulfanyl)-5-ethylaminobenzyl]isothiourea trihydrobromide] the value was at most 6.00; for `N=C(N)SCc1cc(F)ccc1Oc1cc(Cl)ccc1CSC(=N)N` [Example 2.30, 2-[2-({[amino(imino)methyl]thio}methyl)-5-chlorophenoxy]-5-fluorobenzyl imidothiocarbamate dihydrobromide], 6.00 to 7.00.

For the molecule `N=C(N)SCc1cc(F)ccc1Sc1c(CSC(=N)N)cccc1[N+](=O)[O-]` [Example 1.17, 2-[2-(2-carbamimidoylsulfanylmethyl-4-fluorophenylsulfanyl)-3-nitrobenzyl]isothiourea dihydrobromide], the pIC50 is at most 6.00.

As for `N=C(N)SCc1ccccc1Sc1cc(Cl)ccc1CSC(=N)N` [Example 1.11, 2-[2-(2-carbamimidoylsulfanylmethyl-5-chlorophenylsulfanyl)-benzyl]isothiourea dihydrobromide], the pIC50 was 6.00 to 7.00. The same measure for `CNC(=N)SCc1ccccc1Sc1ccccc1CSC(=N)NC` [Example 1.29, 2-[2-(2-methylcarbamimidoylsulfanylmethylphenylsulfanyl)benzyl]-methylisothiourea dihydrobromide]: at most 6.00; for `N=C(N)SCCc1ccccc1Sc1ccccc1CSC(=N)N` [Example 1.25, 2-[2-(2-carbamimidoylsulfanylethylphenylsulfanyl)benzyl]isothiourea dihydrobromide]: at most 6.00. For `N=C(N)SCc1cc(F)ccc1Sc1ccc2ccccc2c1CSC(=N)N` [Example 1.14, 2-[2-(1-carbamimidoylsulfanylmethylnaphthalen-2-ylsulfanyl)-5-fluorobenzyl]isothiourea dihydrobromide] the value was at most 6.00.

For the molecule `N=C(N)SCc1cc(Cl)ccc1Oc1ccc([N+](=O)[O-])cc1CSC(=N)N` [Example 2.20, 2-[2-({[amino(imino)methyl]thio}methyl)-4-chlorophenoxy]-5-nitrobenzyl imidothiocarbamate dihydrobromide], the pIC50 is at most 6.00.

Consider `N=C(N)SCc1cc(F)ccc1Sc1ccc(F)cc1CSC(=N)N` [Example 2, 2-[2-(2-carbamimidoylsulfanylmethyl-4-fluoro-phenylsulfanyl)-5-fluoro-benzyl]-isothiourea dihydrobromide], for which the pIC50 was 6.00 to 7.00. For `N=C(N)SCc1cc(F)ccc1Sc1ccc(Cl)cc1CSC(=N)N` [Example 1.20, 2-[2-(2-carbamimidoylsulfanylmethyl-4-chlorophenylsulfanyl)-5-fluorobenzyl]isothiourea dihydrobromide] the value was 6.00 to 7.00; for `N=C(N)SCc1ccccc1C(=O)c1ccccc1CSC(=N)N` [Example 2.25, 2-(6-(amidinothiomethyl)phenyl)carbonyl-1-(amidinothiomethyl)benzene dihydrobromide], 6.00 to 7.00. `CS(=O)(=O)c1ccc(Sc2ccc(F)cc2CSC(=N)N)c(CSC(=N)N)c1` [Example 1.30, 2-[2-(2-carbamimidoylsulfanylmethyl-4-fluorophenylsulfanyl)-5-(methylsulfonyl)benzyl]isothiourea dihydrobromide]: the pIC50 was 6.00 to 7.00. The same measure for `Cc1ccc(CSC(=N)N)c(Sc2ccccc2CSC(=N)N)c1` [Example 1.3, 2-[2-(2-carbamimidoylsulfanylmethyl-5-methylphenylsulfanyl)-benzyl]isothiourea dihydrobromide]: at most 6.00. For `N=C(N)CCCc1ccccc1Sc1ccccc1CCCC(=N)N` [Example 6.2, 2-(6-(3-amidinopropyl)phenyl)thio-1-(3-amidinopropyl)benzene] the value was at most 6.00; for `N=C(N)SCc1cc(F)ccc1Oc1ccc([N+](=O)[O-])cc1CSC(=N)N` [Example 2.14, 2-[2-({[amino(imino)methyl]thio}methyl)-4-fluorophenoxy]-5-nitrobenzyl imidothiocarbamate dihydrobromide], 6.00 to 7.00.

In general, pIC50 refers to the negative decadic logarithm of the IC50, by convention in mol/L.

These data come from patent US20080234384A1, “BIARYL AND BIHETEROARYL COMPOUNDS USEFUL IN TREATING IRON DISORDERS” (XENON PHARMACEUTICALS INC., priority 2007, published 2008).
